Test results as given in patent US9777005B2 (Takeda Pharmaceutical Company Limited, priority 2012, dated 2017).

Molecular target: T1, human M1 receptor (hCHRM1) (Homo sapiens, UniProt P11229)
T1 construct: expressed in transfected cells; host or cells: CHO-K1
T1 sequence (P11229 1-460): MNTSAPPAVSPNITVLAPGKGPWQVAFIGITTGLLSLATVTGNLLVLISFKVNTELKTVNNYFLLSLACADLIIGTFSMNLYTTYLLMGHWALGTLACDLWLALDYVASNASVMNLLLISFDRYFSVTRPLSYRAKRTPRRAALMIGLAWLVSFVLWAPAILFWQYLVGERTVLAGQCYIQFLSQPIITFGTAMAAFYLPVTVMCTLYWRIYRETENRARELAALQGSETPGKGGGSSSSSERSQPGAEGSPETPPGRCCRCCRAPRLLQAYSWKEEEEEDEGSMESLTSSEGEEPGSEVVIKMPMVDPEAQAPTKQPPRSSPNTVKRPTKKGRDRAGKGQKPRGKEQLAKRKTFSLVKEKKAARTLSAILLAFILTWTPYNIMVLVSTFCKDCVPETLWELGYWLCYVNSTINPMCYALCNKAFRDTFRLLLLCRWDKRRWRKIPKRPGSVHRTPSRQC
Assay: Measurement of M1 receptor positive allosteric modulator (M1PAM) activity, calcium fluorescence (FLIPRtetra) in CHO-K1 cells in the presence of acetylcholine at EC20
Format: cell-based
Conditions: in the presence of acetylcholine at EC20 (final 0.6 nM), CHO-K1 cells expressing hCHRM1; for EC50: inflection point of M1PAM activity, read-out: IP value; for activity (%) at 10 μM: test compound 10 μM
Experimental: Measurement of M1 Receptor Positive Allosteric Modulator (M1PAM) Activity
The activity of a test compound in the presence of acetylcholine at EC20 concentration (final concentration 0.6 nM), which affords an action corresponding to 20% of the maximum activity, was measured as PAM activity. The method is as follows. CHO-K1 cells forcibly expressing a human M1 receptor (hCHRM1) were plated on a 384-well black clear bottom plate (BD Falcon) at 5,000 cells/well, and cultured in an incubator at 37° C., 5% CO2 for 1 day. The medium in the cell plate was removed, and assay buffer A (Recording medium (DOJINDO LABORATORIES), 0.1% BSA (Wako Pure Chemical Industries, Ltd.), 2.5 μg/mL Fluo-4 AM (DOJINDO LABORATORIES), 0.08% Pluronic F127 (DOJINDO LABORATORIES), 1.25 mM probenecid (DOJINDO LABORATORIES)) containing a calcium indicator was added at 30 μL/well. The cells were left standing in the incubator at 37° C., 5% CO2 for 30 min, and further left standing at room temperature for 30 min. A test compound prepared by diluting with assay buffer B (HBSS (Invitrogen), 20 mM HEPES (Invitrogen), 0.1% BSA) containing 2.4 nM acetylcholine was added at 10 μL/well, and the fluorescence was measured by FLIPRtetra (Molecular Devices) for 1 min every 1 second. With the definition that the amount of change in the fluorescence on addition of acetylcholine (final concentration 1 μM) is 100% and that on addition of DMSO instead of a test compound is 0%, the activity (%) of the test compound and the inflection point in the concentration-dependent curve of the test compound were calculated as IP values.

Molecule	EC50	activity (%) at 10 μM
1,5-anhydro-2-deoxy-3-O-(3-oxo-2-(4-(1H-pyrazol-1-yl)benzyl)-2,3-dihydro-1H-isoindol-4-yl)-threo-pentitol [Example 239]	0.0061 µM	109%
1,5-anhydro-2-deoxy-4-O-(3-oxo-2-(4-(1H-pyrazol-1-yl)benzyl)-2,3-dihydro-1H-isoindol-4-yl)-threo-pentitol [Example 241]	0.013 µM	101%
Cn1cc(-c2ccc(CN3Cc4cccc(O[C@H]5CCCC[C@@H]5O)c4C3=O)cc2)cn1 (relative stereo) [Example 1, 7-((trans-2-hydroxycyclohexyl)oxy)-2-(4-(1-methyl-1H-pyrazol-4-yl)benzyl)isoindolin-1-one]	0.007 µM	102%
Cn1cc(-c2ccc(CN3Cc4cccc(O[C@H]5CCC(F)(F)C[C@@H]5O)c4C3=O)cc2)cn1 (relative stereo) [Example 2, 7-((trans-4,4-difluoro-2-hydroxycyclohexyl)oxy)-2-(4-(1-methyl-1H-pyrazol-4-yl)benzyl)isoindolin-1-one]	0.0087 µM	105%
Cn1cc(-c2ccc(CN3Cc4cccc(O[C@H]5CCCCC[C@@H]5O)c4C3=O)cc2)cn1 (relative stereo) [Example 3, 7-((trans-2-hydroxycycloheptyl)oxy)-2-(4-(1-methyl-1H-pyrazol-4-yl)benzyl)isoindolin-1-one]	0.0091 µM	104%
Cn1cc(-c2ccc(CN3Cc4cccc(O[C@H]5CCC[C@@H]5O)c4C3=O)cc2)cn1 (relative stereo) [Example 4, 7-((trans-2-hydroxycyclopentyl)oxy)-2-(4-(1-methyl-1H-pyrazol-4-yl)benzyl)isoindolin-1-one]	0.013 µM	101%
Cn1cc(-c2ccc(CN3Cc4cccc(O[C@H]5CCCC(F)(F)[C@@H]5O)c4C3=O)cc2)cn1 (relative stereo) [Example 7, 7-((trans-3,3-difluoro-2-hydroxycyclohexyl)oxy)-2-(4-(1-methyl-1H-pyrazol-4-yl)benzyl)isoindolin-1-one]	0.032 µM	114%
O=C1c2c(cccc2O[C@H]2CCCC[C@@H]2O)CN1Cc1ccc(Br)cc1 (relative stereo) [Example 25, 2-(4-bromobenzyl)-7-((trans-2-hydroxycyclohexyl)oxy)isoindolin-1-one]	0.19 µM	113%
O=C1c2c(cccc2O[C@H]2CCCC[C@@H]2O)CN1Cc1ccc(-c2cn[nH]c2)cc1 (relative stereo) [Example 26, 7-((trans-2-hydroxycyclohexyl)oxy)-2-(4-(1H-pyrazol-4-yl)benzyl)isoindolin-1-one]	0.0041 µM	96%
Cn1cc(-c2ccc(CN3Cc4cccc(O[C@H]5CCCC[C@@H]5O)c4C3=O)cn2)cn1 (relative stereo) [Example 27]	0.0064 µM	97%
Cn1cc(-c2ccc(CN3Cc4cccc(O[C@H]5CCCC[C@@H]5O)c4C3=O)s2)cn1 (relative stereo) [Example 28, 7-((trans-2-hydroxycyclohexyl)oxy)-2-((5-(1-methyl-1H-pyrazol-4-yl)-2-thienyl)methyl)isoindolin-1-one]	0.007 µM	120%
O=C1c2c(cccc2O[C@H]2CCCC[C@@H]2O)CN1Cc1ccc(-n2cccn2)cc1 (relative stereo) [Example 29, 7-((trans-2-hydroxycyclohexyl)oxy)-2-(4-(1H-pyrazol-1-yl)benzyl)isoindolin-1-one]	0.0075 µM	89%
O=C1c2c(cccc2O[C@H]2CCCC[C@@H]2O)CN1Cc1ccc(-c2ccnn2C2CCCCO2)cc1 (relative stereo) [Example 30, 7-((trans-2-hydroxycyclohexyl)oxy)-2-(4-(1-(tetrahydro-2H-pyran-2-yl)-1H-pyrazol-5-yl)benzyl)isoindolin-1-one]	0.19 µM	104%
O=C1c2c(cccc2O[C@H]2CCCC[C@@H]2O)CN1Cc1ccc(-c2ccn[nH]2)cc1 (relative stereo) [Example 31, 7-((trans-2-hydroxycyclohexyl)oxy)-2-(4-(1H-pyrazol-5-yl)benzyl)isoindolin-1-one]	0.0085 µM	105%
Cc1ccn(-c2ccc(CN3Cc4cccc(O[C@H]5CCCC[C@@H]5O)c4C3=O)cc2)n1 (relative stereo) [Example 32, 7-((trans-2-hydroxycyclohexyl)oxy)-2-(4-(3-methyl-1H-pyrazol-1-yl)benzyl)isoindolin-1-one]	0.01 µM	110%
N#Cc1ccc(CN2Cc3cccc(O[C@H]4CCCC[C@@H]4O)c3C2=O)cc1 (relative stereo) [Example 33, 4-((7-((trans-2-hydroxycyclohexyl)oxy)-1-oxo-1,3-dihydro-2H-isoindol-2-yl)methyl)benzonitrile]	0.077 µM	98%
NC(=O)c1ccc(CN2Cc3cccc(O[C@H]4CCCC[C@@H]4O)c3C2=O)cc1 (relative stereo) [Example 34, 4-((7-((trans-2-hydroxycyclohexyl)oxy)-1-oxo-1,3-dihydro-2H-isoindol-2-yl)methyl)benzamide]	0.01 µM	92%
Cn1ccc(-c2ccc(CN3Cc4cccc(O[C@H]5CCCC[C@@H]5O)c4C3=O)cc2)n1 (relative stereo) [Example 35, 7-((trans-2-hydroxycyclohexyl)oxy)-2-(4-(1-methyl-1H-pyrazol-3-yl)benzyl)isoindolin-1-one]	0.014 µM	134%
Cn1cc(-c2cccc(CN3Cc4cccc(O[C@H]5CCCC[C@@H]5O)c4C3=O)c2)cn1 (relative stereo) [Example 39, 7-((trans-2-hydroxycyclohexyl)oxy)-2-(3-(1-methyl-1H-pyrazol-4-yl)benzyl)isoindolin-1-one]	0.058 µM	97%
Cc1ccn(-c2ccc(CN3Cc4cccc(O[C@H]5CCC[C@@H]5O)c4C3=O)cc2)n1 (relative stereo) [Example 40, 7-((trans-2-hydroxycyclopentyl)oxy)-2-(4-(3-methyl-1H-pyrazol-1-yl)benzyl)isoindolin-1-one]	0.064 µM	117%
O=C1c2c(cccc2O[C@H]2CCCC[C@@H]2O)CN1Cc1ccc(Cl)nc1 (relative stereo) [Example 43, 2-((6-chloropyridin-3-yl)methyl)-7-((trans-2-hydroxycyclohexyl)oxy)isoindolin-1-one]	0.21 µM	99%
O=C1c2c(cccc2O[C@H]2CCCC[C@@H]2O)CN1Cc1cccc(Br)c1 (relative stereo) [Example 48, 2-(3-bromobenzyl)-7-((trans-2-hydroxycyclohexyl)oxy)isoindolin-1-one]	0.36 µM	100%
O=C1c2c(cccc2O[C@H]2CCC[C@@H]2O)CN1Cc1ccc(-n2cccn2)cc1 (relative stereo) [Example 54, 2-(4-(1H-pyrazol-1-yl)benzyl)-7-((trans-2-hydroxycyclopentyl)oxy)isoindolin-1-one]	0.16 µM	106%
Cc1cc(-c2ccc(CN3Cc4ccnc(O[C@H]5CCC[C@@H]5O)c4C3=O)cc2)ccn1 (relative stereo) [Example 76, 4-((trans-2-hydroxycyclopentyl)oxy)-2-(4-(2-methylpyridin-4-yl)benzyl)-1,2-dihydro-3H-pyrrolo[3,4-c]pyridin-3-one]	0.0072 µM	108%
O=C1c2c(ccnc2O[C@H]2CCC[C@@H]2O)CN1Cc1ccc(-n2cccn2)cc1 (relative stereo) [Example 77, 4-((trans-2-hydroxycyclopentyl)oxy)-2-(4-(1H-pyrazol-1-yl)benzyl)-1,2-dihydro-3H-pyrrolo[3,4-c]pyridin-3-one]	0.039 µM	103%
